Assays:
[1] = target: T1, Serine/threonine-protein kinase Nek3 (Homo sapiens) (UniProt P51956); test: Selectivity interaction (Kinase panel (KiNativ target engagement assay in Jurkat cells)) EUB0001635a NEK3; assay type: cell-based; conditions: at 1 µM
T1 sequence (whole entry): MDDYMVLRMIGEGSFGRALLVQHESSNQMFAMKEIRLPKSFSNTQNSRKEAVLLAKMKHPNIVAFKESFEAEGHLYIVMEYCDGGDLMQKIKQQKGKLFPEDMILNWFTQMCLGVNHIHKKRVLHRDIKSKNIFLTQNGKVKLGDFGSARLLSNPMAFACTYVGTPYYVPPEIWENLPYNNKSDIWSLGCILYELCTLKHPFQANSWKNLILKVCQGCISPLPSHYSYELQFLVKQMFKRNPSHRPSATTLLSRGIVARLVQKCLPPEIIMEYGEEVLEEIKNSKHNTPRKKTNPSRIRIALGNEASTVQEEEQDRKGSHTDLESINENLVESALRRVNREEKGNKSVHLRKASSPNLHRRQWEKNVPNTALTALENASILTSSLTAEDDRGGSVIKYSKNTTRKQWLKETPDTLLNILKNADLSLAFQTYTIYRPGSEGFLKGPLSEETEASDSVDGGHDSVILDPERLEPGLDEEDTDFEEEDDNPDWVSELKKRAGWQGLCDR

[2] = target: Tyrosine-protein kinase CSK (Homo sapiens) (UniProt P41240); test: Selectivity interaction (Kinase panel (KiNativ target engagement assay in Jurkat cells)) EUB0001635a CSK; assay type: cell-based; conditions: at 1 µM
Chain of Tyrosine-protein kinase CSK (Homo sapiens) (P41240 2-450 limits assumed): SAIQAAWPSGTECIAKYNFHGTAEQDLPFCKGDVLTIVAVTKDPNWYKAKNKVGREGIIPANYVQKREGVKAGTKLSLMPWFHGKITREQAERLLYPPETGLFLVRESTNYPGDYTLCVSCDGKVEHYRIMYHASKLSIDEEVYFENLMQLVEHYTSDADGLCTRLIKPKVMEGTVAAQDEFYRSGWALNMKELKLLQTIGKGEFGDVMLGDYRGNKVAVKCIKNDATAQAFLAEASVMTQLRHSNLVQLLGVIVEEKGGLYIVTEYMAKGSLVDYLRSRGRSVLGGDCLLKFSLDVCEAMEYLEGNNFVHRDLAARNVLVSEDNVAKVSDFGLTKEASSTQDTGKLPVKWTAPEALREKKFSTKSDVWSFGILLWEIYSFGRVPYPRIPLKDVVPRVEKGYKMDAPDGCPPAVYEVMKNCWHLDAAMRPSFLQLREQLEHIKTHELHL

[3] = target: Serine/threonine-protein kinase WNK4 (Homo sapiens) (UniProt Q96J92); test: Selectivity interaction (KinomeScan (DiscoverX)) EUB0000229b WNK4; conditions: at 10 µM
[4] = target: Hepatocyte growth factor receptor (Homo sapiens, UniProt P08581); test: (§1) Selectivity interaction (KinomeScan (DiscoverX)) EUB0000045b MET
Chain of Hepatocyte growth factor receptor (P08581 whole entry): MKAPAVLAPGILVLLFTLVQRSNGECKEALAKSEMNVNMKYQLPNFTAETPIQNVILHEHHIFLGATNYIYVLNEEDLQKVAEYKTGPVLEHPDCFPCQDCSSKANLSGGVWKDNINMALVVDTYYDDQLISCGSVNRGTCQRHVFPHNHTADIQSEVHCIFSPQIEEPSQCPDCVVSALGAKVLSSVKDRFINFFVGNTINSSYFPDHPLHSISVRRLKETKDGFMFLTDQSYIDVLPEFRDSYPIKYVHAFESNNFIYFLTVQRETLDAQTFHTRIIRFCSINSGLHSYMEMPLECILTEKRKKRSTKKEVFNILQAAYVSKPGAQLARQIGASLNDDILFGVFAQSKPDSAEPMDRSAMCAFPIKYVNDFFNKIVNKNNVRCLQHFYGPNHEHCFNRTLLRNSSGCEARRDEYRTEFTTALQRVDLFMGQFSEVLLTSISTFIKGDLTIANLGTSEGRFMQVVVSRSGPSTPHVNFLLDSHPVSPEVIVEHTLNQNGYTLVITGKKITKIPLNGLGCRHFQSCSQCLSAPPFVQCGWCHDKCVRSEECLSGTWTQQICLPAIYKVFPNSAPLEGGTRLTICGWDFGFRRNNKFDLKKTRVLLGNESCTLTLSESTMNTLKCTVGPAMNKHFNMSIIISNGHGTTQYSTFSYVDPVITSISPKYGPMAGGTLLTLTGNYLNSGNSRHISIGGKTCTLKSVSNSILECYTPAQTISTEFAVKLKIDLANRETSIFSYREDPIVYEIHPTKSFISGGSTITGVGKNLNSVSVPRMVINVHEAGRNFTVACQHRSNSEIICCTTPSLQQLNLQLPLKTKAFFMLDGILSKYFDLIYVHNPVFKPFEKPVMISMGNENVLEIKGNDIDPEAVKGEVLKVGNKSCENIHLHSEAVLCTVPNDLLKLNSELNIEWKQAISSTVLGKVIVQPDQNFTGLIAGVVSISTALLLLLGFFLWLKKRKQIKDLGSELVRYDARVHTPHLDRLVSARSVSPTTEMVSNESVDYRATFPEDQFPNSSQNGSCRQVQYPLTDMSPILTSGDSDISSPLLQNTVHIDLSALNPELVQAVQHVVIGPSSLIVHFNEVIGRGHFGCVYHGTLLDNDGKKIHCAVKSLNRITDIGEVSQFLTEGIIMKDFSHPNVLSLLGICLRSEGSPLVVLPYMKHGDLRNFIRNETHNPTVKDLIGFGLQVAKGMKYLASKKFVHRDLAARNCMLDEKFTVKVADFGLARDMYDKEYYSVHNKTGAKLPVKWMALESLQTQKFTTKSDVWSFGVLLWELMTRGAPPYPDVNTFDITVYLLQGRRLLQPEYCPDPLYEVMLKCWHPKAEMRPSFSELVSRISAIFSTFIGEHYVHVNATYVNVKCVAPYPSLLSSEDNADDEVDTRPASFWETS

[5] = system: Hepatocyte growth factor receptor (Homo sapiens), P08581 [M1250T]; test: as §1
Chain of Hepatocyte growth factor receptor (Homo sapiens), P08581 [M1250T] (P08581 whole entry M1250T): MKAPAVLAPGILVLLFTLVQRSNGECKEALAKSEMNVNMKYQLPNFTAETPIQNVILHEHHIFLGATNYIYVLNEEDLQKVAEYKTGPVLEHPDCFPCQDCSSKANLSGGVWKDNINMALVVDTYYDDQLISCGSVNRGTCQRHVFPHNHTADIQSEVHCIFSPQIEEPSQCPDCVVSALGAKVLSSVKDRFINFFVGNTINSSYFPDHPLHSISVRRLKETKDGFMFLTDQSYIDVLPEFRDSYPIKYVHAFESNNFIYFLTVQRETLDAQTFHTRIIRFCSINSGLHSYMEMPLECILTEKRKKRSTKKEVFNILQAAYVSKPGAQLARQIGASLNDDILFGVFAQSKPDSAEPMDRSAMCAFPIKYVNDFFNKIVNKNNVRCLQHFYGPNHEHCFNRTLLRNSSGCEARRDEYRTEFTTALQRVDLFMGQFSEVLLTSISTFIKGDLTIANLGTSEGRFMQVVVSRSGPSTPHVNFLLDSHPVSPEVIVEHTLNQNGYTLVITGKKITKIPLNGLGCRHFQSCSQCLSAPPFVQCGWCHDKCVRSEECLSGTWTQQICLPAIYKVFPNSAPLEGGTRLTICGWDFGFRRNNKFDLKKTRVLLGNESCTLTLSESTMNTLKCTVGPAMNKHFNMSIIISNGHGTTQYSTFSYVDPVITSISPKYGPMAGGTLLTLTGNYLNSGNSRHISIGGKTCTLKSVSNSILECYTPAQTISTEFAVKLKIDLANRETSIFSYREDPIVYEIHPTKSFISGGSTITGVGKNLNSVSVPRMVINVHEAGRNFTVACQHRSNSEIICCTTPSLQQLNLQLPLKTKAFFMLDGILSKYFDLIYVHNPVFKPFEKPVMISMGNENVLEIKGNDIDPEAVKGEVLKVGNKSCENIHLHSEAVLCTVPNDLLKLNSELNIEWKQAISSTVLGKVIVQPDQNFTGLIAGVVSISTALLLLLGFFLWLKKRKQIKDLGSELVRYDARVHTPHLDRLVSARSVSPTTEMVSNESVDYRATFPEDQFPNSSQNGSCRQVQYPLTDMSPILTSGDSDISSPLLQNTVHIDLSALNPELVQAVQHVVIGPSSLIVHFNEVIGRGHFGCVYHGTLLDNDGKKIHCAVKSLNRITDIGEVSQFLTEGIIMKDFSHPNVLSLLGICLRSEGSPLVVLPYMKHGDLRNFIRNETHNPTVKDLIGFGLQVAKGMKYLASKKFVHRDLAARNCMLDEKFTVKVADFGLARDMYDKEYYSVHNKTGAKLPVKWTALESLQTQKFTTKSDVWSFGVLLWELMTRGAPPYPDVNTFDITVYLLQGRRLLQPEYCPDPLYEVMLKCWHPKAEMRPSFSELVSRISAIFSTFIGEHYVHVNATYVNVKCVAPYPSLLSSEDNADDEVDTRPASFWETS

[6] = system: Hepatocyte growth factor receptor (Homo sapiens), P08581 [Y1235D]; test: as §1
Chain of Hepatocyte growth factor receptor (Homo sapiens), P08581 [Y1235D] (P08581 whole entry Y1235D): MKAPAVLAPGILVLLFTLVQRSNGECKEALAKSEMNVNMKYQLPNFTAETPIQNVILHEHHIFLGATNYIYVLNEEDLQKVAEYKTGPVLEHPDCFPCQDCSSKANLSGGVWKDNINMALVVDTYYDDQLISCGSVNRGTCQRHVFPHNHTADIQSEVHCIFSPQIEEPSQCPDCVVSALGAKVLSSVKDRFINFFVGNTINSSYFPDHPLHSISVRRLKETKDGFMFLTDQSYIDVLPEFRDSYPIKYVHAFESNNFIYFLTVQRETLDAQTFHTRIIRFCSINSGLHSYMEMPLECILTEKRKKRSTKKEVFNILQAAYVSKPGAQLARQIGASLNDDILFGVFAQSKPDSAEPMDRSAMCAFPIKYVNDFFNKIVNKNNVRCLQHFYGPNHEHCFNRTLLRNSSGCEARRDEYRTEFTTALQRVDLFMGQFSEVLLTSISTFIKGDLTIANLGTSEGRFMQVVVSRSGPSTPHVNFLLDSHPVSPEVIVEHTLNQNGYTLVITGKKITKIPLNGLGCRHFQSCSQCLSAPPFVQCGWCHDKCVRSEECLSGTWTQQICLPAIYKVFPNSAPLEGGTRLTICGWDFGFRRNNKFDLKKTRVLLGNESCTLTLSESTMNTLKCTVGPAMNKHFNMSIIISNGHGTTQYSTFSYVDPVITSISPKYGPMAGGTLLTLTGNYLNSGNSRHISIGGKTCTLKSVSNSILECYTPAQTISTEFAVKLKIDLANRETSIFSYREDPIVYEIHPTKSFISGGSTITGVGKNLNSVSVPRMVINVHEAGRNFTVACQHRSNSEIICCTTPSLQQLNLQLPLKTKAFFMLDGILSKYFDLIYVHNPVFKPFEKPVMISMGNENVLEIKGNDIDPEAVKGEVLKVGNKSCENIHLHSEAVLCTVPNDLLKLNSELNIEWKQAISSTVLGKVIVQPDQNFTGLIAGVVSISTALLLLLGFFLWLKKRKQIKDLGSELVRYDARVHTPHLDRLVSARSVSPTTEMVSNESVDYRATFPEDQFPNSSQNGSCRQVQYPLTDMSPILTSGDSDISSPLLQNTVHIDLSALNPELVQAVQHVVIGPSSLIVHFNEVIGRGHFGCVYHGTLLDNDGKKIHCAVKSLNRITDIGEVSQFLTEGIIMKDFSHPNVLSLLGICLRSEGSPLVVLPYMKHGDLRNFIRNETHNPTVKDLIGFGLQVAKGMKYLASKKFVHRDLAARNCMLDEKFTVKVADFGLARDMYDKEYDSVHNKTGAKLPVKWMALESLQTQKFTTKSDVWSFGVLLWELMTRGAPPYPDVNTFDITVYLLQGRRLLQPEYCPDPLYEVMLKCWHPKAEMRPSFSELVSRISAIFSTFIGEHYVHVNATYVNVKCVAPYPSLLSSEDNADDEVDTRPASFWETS

[7] = target: Serine/threonine-protein kinase 10 (Homo sapiens) (UniProt O94804); test: Selectivity interaction (KinomeScan (DiscoverX)) EUB0000695a STK10; conditions: at 100 nM
[8] = Selectivity interaction (KinomeScan (DiscoverX)) EUB0000695a PKNB; conditions: at 100 nM
[9] = target: T2, Dual specificity mitogen-activated protein kinase kinase 4 (Homo sapiens) (UniProt P45985); conditions: at 10 µM
T2 sequence (whole entry): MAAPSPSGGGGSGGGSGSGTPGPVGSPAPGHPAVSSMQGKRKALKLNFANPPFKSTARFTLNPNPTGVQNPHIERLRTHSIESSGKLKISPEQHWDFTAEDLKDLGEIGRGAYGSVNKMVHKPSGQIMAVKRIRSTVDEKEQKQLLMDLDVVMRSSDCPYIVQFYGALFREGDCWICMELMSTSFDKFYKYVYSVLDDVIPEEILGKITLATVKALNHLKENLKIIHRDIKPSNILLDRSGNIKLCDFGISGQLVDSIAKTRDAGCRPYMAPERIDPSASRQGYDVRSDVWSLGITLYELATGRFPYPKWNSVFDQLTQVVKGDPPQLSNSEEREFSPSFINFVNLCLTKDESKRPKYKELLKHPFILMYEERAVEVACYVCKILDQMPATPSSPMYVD

[10] = target: T3, Serine/threonine-protein kinase MAK (Homo sapiens) (UniProt P20794); test: Selectivity interaction (KinomeScan (DiscoverX)) EUB0001049a MAK; conditions: at 1 µM
T3 sequence (whole entry): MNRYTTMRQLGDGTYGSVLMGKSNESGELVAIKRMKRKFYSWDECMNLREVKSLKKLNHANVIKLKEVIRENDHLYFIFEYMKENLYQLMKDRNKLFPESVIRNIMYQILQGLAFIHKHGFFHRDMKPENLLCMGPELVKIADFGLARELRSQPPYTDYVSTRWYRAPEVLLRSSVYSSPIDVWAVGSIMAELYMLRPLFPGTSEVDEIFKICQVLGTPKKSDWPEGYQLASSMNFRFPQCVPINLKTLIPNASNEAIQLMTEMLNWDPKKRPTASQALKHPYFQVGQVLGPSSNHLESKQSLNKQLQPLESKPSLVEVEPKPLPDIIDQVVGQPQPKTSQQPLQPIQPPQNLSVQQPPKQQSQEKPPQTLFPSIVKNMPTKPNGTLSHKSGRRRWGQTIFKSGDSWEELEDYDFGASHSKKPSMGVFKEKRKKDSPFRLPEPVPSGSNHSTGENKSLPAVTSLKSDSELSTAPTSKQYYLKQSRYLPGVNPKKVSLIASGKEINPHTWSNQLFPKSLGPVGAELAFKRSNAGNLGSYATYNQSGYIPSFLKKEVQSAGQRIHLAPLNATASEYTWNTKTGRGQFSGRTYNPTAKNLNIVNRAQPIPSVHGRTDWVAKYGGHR

[11] = target: Phosphorylase b kinase gamma catalytic chain, skeletal muscle/heart isoform (Homo sapiens) (UniProt Q16816); test: Selectivity interaction (KinomeScan (DiscoverX)) EUB0001049a PHKG1; conditions: at 1 µM
Chain of Phosphorylase b kinase gamma catalytic chain, skeletal muscle/heart isoform (Homo sapiens) (Q16816 whole entry, looked up, canonical isoform): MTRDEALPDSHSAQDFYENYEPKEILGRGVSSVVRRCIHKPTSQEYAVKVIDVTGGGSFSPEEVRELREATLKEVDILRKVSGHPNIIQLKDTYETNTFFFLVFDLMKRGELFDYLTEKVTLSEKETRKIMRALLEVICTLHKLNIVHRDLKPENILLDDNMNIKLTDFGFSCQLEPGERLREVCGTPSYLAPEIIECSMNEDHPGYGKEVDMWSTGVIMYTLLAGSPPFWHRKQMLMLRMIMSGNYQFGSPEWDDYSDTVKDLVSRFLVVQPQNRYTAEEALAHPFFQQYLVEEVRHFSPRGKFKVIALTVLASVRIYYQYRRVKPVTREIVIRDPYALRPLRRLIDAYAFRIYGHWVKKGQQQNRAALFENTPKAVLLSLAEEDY

[12] = target: RAF proto-oncogene serine/threonine-protein kinase (Homo sapiens) (UniProt P04049); test: Selectivity interaction (KinomeScan (DiscoverX)) EUB0001049a RAF1; conditions: at 1 µM
[13] = target: Dual specificity tyrosine-phosphorylation-regulated kinase 1B (Homo sapiens, UniProt Q9Y463); test: Selectivity interaction (KinomeScan (DiscoverX)) EUB0001550a DYRK1B; conditions: at 1 µM
[14] = target: Phosphatidylinositol 4-phosphate 5-kinase type-1 alpha (Homo sapiens) (UniProt Q99755); test: Selectivity interaction (ProQinase) EUB0000171b PIP5K1A
[15] = target: TRAF2 and NCK-interacting protein kinase (Homo sapiens) (UniProt Q9UKE5); test: Selectivity interaction (ActivX KiNativ screen (ex vivo kinase selectivity in human PBMCs)) EUB0001619a TNIK; assay type: cell-based; conditions: PBMC, at 1 µM

`C=CC(=O)Nc1ccc(C(=O)Nc2[nH]nc3c2CN(C(=O)N[C@H](CN(C)C)c2ccccc2)C3(C)C)cc1` gave a % of engagement [1] of 4.4%, a % of engagement ([2]; Selectivity number of off-targets 0.0, Selectivity number of targets 233.0, Source Knowledge https://www.sciencedirect.com/science/article/pii/S2451945619300674?via%3Dihub) of -7.9% and a % of engagement [2] of -8.1%.
`COc1cc(N(C)c2ccnc3ccc(C(F)(F)F)cc23)cc(OC)c1OC` gave a % binding [3] of 100%.
In the case of `C=CC(=O)Nc1cc(-n2c(=O)ccc3cnc4ccc(-c5ccc(NS(C)(=O)=O)cc5)cc4c32)ccc1C`, the % of control ([4]; at 1 µM) is reported as 100%, the % of control ([4]; at 10 µM) is reported as 64% and the % of control ([5]; at 1 µM) is reported as 80%. It also gave a % of control ([5]; at 10 µM) of 90%, a % of control ([6]; at 1 µM) of 95% and a % of control ([6]; at 10 µM) of 100%.
For `Cc1cc(F)c(C(=O)Nc2cccc(-c3nncn3C(C)C)n2)cc1-n1cnc(C2CC2)c1`, the % of control [7] was 100% and the % of control [8] was 100%.
For `Cc1cc([C@@H](C)Nc2ccccc2C(=O)O)c2nc(N3CCOCC3)cc(=O)n2c1` [AZD-6482], the % of control [9] was 100%.
For `COc1cc(Nc2nc(C)cc(-c3cnn4nc(OC)ccc34)n2)cc(C(F)(F)F)c1`, the % of control [10] was 84%, the % of control [11] was 85% and the % of control [12] was 100%.
`CN(C)CC#Cc1ccc2[nH]c3c(c2c1)-c1nc(N)ncc1CCC3` gave a % of control [13] of 26%.
For `C=CC(=O)Nc1cccc(C(=O)Nc2ccc(Nc3cc(-c4[nH]c(SC)nc4C)ccn3)cc2)c1`, the % of control ([14]; at 1 µM) was 102% and the % of control ([14]; at 5 µM) was 44%.
With `N#Cc1cccc(-c2c[nH]c3ncnc(N4CCOCC4)c23)c1` the % of inhibition [15] was 29%.
